{
  "source": "patent US20140072530A1",
  "about": "“TREATMENT OF HIV” (priority 2006, published 2014)",
  "origin": "cited, not measured here",
  "key": {"[1]": {"system": "normal peripheral blood mononuclear cells (PBMC)", "settings": "induced by HIV envelope glycoprotein gp 120, normal PBMC"}, "[2]": {"system": "whole blood samples stimulated with LPS", "settings": "LPS-stimulated whole blood of HIV patients; concentration-dependent"}},
  "data": [
    {"substance": "α-melanocyte-stimulating hormone [α-MSH (1-13), α-melanocyte-stimulating hormone [α-MSH (1-13)]]", "values": [
      {"measurement": "production of IL-1β", "setting": "[1]", "result": "inhibit"},
      {"measurement": "production of TNF-α", "setting": "[1]", "result": "inhibit"},
      {"measurement": "production of IL-1", "setting": "[2]", "result": "reduced"},
      {"measurement": "production of TNF-α", "setting": "[2]", "result": "reduced"}
    ]},
    {"substance": "adrenocorticotropic hormone [ACTH (1-39] (SYSMEHFRWGKPVGKKRRPVKVYPNGAEDESAEAFPLEF; Corticotropin; UniProt P01189 138-176, looked up) [ACTH (1-39), Proopiomelanocortin-derived melanocortin peptide]", "values": [
      {"measurement": "production of IL-1", "setting": "[2]", "result": "reduced"},
      {"measurement": "production of TNF-α", "setting": "[2]", "result": "reduced"}
    ]},
    {"substance": "ACTH (1-24): Melanocortin peptide, fragment 1-24 of adrenocorticotropic hormone (SYSMEHFRWGKPVGKKRRPVKVYP; Corticotropin; UniProt P01189 138-161, looked up, fragment)", "values": [
      {"measurement": "production of IL-1", "setting": "[2]", "result": "reduced"},
      {"measurement": "production of TNF-α", "setting": "[2]", "result": "reduced"}
    ]}
  ]
}
